Our source for the melting point values is US11365193B2, “Oxadiazole compound and fungicide for agricultural and horticultural use” (Nippon Soda Co., Ltd., priority 2017, dated 2022).

By melting point is commonly meant the temperature of the solid-liquid transition.

SMILES strings stand for the structures.

Consider `O=c1ccccn1-c1ccc(-c2noc(C(F)(F)F)n2)cc1` [Compound 1-2], for which the melting point is 130 to 133 °C.

Consider `O=c1c2ccccc2ncn1Cc1ccc(-c2noc(C(F)(F)F)n2)cc1` [Compound 1-3], for which the melting point lay within 178 to 180 °C. Turning to `O=c1c2ccccc2ncn1-c1ccc(-c2noc(C(F)(F)F)n2)cc1` [Compound 1-4], the melting point lay within 233 to 235 °C. Next, `O=c1cccnn1-c1ccc(-c2noc(C(F)(F)F)n2)cc1` [Compound 1-5]: 97 to 100 °C; `O=c1cc2ccccc2cn1Cc1ccc(-c2noc(C(F)(F)F)n2)cc1` [Compound 1-6]: 165 to 168 °C. As for `Cc1ccn(-c2ccc(-c3noc(C(F)(F)F)n3)cc2)c(=O)c1` [Compound 1-8], the melting point lay in the range of 151 to 154 °C. Regarding `Cc1ccc(=O)n(-c2ccc(-c3noc(C(F)(F)F)n3)cc2)n1` [Compound 1-9], the melting point was in the range of 78 to 83 °C. Under `O=c1c2ccccc2cnn1-c1ccc(-c2noc(C(F)(F)F)n2)cc1` [Compound 1-10] stands 141 to 144 °C. With `O=c1c2ccccc2cnn1Cc1ccc(-c2noc(C(F)(F)F)n2)cc1` [Compound 1-11], the melting point was 133 to 136 °C. On to `O=c1cccnn1CC1(c2ccc(-c3noc(C(F)(F)F)n3)cc2)OCCO1` [Compound 1-14], for which the melting point is 105 to 107 °C. Next, `O=C(Cn1ncccc1=O)c1ccc(-c2noc(C(F)(F)F)n2)cc1` [Compound 1-15]: 122 to 125 °C; `CSc1cnn(-c2ccc(-c3noc(C(F)(F)F)n3)cc2)c(=O)c1` [Compound 1-16]: 151 to 153 °C.

As for `C[S+]([O-])c1cnn(-c2ccc(-c3noc(C(F)(F)F)n3)cc2)c(=O)c1` (centres unmarked) [Compound 1-17], the melting point lay within 145 to 147 °C. `CS(=O)(=O)c1cnn(-c2ccc(-c3noc(C(F)(F)F)n3)cc2)c(=O)c1` [Compound 1-18] registered a melting point of 186 to 188 °C. In the case of `Cc1noc2cnn(Cc3ccc(-c4noc(C(F)(F)F)n4)cc3)c(=O)c12` [Compound 1-21], the melting point fell in the range of 158 to 160 °C.

Molecule `Cc1nn(C)c2cnn(Cc3ccc(-c4noc(C(F)(F)F)n4)cc3)c(=O)c12` [Compound 1-22] displayed a melting point of 187 to 190 °C. Molecule `Cc1nc2c(cnn2C)c(=O)n1Cc1ccc(-c2noc(C(F)(F)F)n2)cc1` [Compound 1-23] showed a melting point of 118 to 120 °C.

In the case of `Cn1ncc2c(=O)n(Cc3ccc(-c4noc(C(F)(F)F)n4)cc3)cnc21` [Compound 1-24], the melting point lay in the range of 225 to 228 °C. With `O=c1c2c(ncn1Cc1ccc(-c3noc(C(F)(F)F)n3)cc1)CCC2` [Compound 1-25], the melting point lay in the range of 165 to 168 °C. The molecule `O=c1c2c(ncn1Cc1ccc(-c3noc(C(F)(F)F)n3)cc1)CCCC2` [Compound 1-26] yielded a melting point of 157 to 160 °C. `O=C(C(=NOCC(F)(F)F)c1ccc(-c2noc(C(F)(F)F)n2)cc1)n1ncccc1=O` [Compound 1-29] showed a melting point of 82 to 98 °C. Under `Cc1nn(C)c2nc(C)n(Cc3ccc(-c4noc(C(F)(F)F)n4)cc3)c(=O)c12` [Compound 1-30] stands 163 to 166 °C.

As for `O=c1cc2c(nn1Cc1ccc(-c3noc(C(F)(F)F)n3)cc1)CCC2` [Compound 1-31], the melting point lay within 94 to 97 °C. Molecule `O=c1c2c(cnn1Cc1ccc(-c3noc(C(F)(F)F)n3)cc1)OCCC2` [Compound 1-32] had a melting point of 87 to 89 °C.

Regarding `O=c1cccnn1CCc1ccc(-c2noc(C(F)(F)F)n2)cc1` [Compound 1-33], the melting point was in the range of 74 to 80 °C.

With `Cc1nc2c(c(=O)n1Cc1ccc(-c3noc(C(F)(F)F)n3)cc1)CCCC2` [Compound 1-34], the melting point lay in the range of 132 to 135 °C. Under `O=c1cccnn1CC(O)c1ccc(-c2noc(C(F)(F)F)n2)cc1` (centres unmarked) [Compound 1-36] stands 119 to 121 °C; under `CON=CCOc1ncn(Cc2ccc(-c3noc(C(F)(F)F)n3)cc2)c(=O)c1Cl` [Compound 1-37], 201 to 203 °C; under `CON=CCOc1cc(=O)n(Cc2ccc(-c3noc(C(F)(F)F)n3)cc2)cn1` [Compound 1-38], 143 to 148 °C. `CCON=CCOc1cc(=O)n(Cc2ccc(-c3noc(C(F)(F)F)n3)cc2)cn1` [Compound 1-40] gave a melting point of 139 to 142 °C. `COCCON=CCOc1cc(=O)n(Cc2ccc(-c3noc(C(F)(F)F)n3)cc2)cn1` [Compound 1-41] yielded a melting point of 94 to 96 °C. For the molecule `O=c1cc(OCC=NOC2CCCCO2)ncn1Cc1ccc(-c2noc(C(F)(F)F)n2)cc1` (centres unmarked) [Compound 1-42], the melting point lay in the range of 103 to 106 °C. The molecule `O=c1cc(OCC=NOCc2ccccc2)ncn1Cc1ccc(-c2noc(C(F)(F)F)n2)cc1` [Compound 1-44] gave a melting point of 78 to 80 °C. `O=c1cc(OCC=NOCC(F)F)ncn1Cc1ccc(-c2noc(C(F)(F)F)n2)cc1` [Compound 1-45] yielded a melting point of 111 to 115 °C. `N#CCON=CCOc1cc(=O)n(Cc2ccc(-c3noc(C(F)(F)F)n3)cc2)cn1` [Compound 1-46] had a melting point of 131 to 133 °C. `Cl.O=c1c2c(ncn1Cc1ccc(-c3noc(C(F)(F)F)n3)cc1)CNCC2` [Compound 1-47]: the melting point lay within 192 to 195 °C. For the molecule `O=c1cc(N2CCOCC2)ncn1Cc1ccc(-c2noc(C(F)(F)F)n2)cc1` [Compound 1-52], the melting point fell in the range of 235 to 237 °C. Turning to `CON=C1CN(C(=O)c2ccc(-c3noc(C(F)(F)F)n3)cc2)C1` [Compound 2], the melting point lay within 162 to 165 °C. Under `CCON=C1CN(C(=O)Cc2ccc(-c3noc(C(F)(F)F)n3)cc2)C1` [Compound 5] stands 130 to 134 °C. `CCON=C1CCN(C(=O)Cc2ccc(-c3noc(C(F)(F)F)n3)cc2)CC1` [Compound 6] displayed a melting point of 86 to 88 °C. In turn, `CON=C1CN(C(=O)Cc2ccc(-c3noc(C(F)(F)F)n3)cc2)C1` [Compound 7] returned a melting point of 172 to 176 °C. Under `CON=C1CCN(C(=O)Cc2ccc(-c3noc(C(F)(F)F)n3)cc2)CC1` [Compound 8] stands 73 to 76 °C; under `O=C(Cc1ccc(-c2noc(C(F)(F)F)n2)cc1)N1CC(=NOCC(F)(F)F)C1` [Compound 9], 126 to 129 °C; under `O=C(Cc1ccc(-c2noc(C(F)(F)F)n2)cc1)N1CCC(=NOCC(F)(F)F)CC1` [Compound 10], 84 to 86 °C. The molecule `CCON=C1CCN(C(=O)Cc2cccc(-c3noc(C(F)(F)F)n3)c2)CC1` [Compound 11] registered a melting point of 83 to 86 °C. As to `CCSCON=C1CN(C(=O)Cc2ccc(-c3noc(C(F)(F)F)n3)cc2)C1` [Compound 12], the melting point lay within 73 to 75 °C. With `O=C(Cc1ccc(-c2noc(C(F)(F)F)n2)cc1)N1CCC(=NOC2CCCCO2)CC1` (centres unmarked) [Compound 15], the melting point is 104 to 106 °C.

The molecule `O=C(Cc1ccc(-c2noc(C(F)(F)F)n2)cc1)N1CC(=NOC2CCCCO2)C1` (centres unmarked) [Compound 16] had a melting point of 82 to 83 °C. Next, `O=C(Cc1ccc(-c2noc(C(F)(F)F)n2)cc1)N1CC(=NOCc2ccccc2)C1` [Compound 17]: 139 to 140 °C; `COCCON=C1CN(C(=O)Cc2ccc(-c3noc(C(F)(F)F)n3)cc2)C1` [Compound 19]: 114 to 116 °C.
